{"source": "patent US8394969B2", "about": "“Cyclic benzimidazole derivatives useful as anti-diabetic agents” (Merck Sharp & Dohme Corp., priority 2008, dated 2013)", "note": "Counter-ions that a name gives are not always drawn.", "data": [{"biological_target": "recombinant human AMPK complex 1 (containing α1β1γ1) (Homo sapiens, UniProt Q13131+Q9Y478)", "sequence (Q13131 whole entry)": "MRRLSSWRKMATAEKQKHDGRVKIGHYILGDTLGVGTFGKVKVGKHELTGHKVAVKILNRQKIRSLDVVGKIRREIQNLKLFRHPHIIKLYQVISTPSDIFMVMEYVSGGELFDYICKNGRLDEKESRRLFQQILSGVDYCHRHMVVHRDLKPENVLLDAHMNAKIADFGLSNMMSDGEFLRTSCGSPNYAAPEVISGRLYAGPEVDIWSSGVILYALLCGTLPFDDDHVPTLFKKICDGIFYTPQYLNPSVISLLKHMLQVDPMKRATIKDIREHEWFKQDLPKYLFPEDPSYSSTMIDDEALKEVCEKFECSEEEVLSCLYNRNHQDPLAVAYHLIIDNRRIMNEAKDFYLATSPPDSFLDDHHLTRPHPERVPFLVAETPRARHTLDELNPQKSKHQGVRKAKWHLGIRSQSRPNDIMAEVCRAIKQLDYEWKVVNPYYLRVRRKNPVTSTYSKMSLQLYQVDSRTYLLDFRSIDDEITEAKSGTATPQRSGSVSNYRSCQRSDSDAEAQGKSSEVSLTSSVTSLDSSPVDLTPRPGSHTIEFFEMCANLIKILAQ", "sequence (Q9Y478 whole entry)": "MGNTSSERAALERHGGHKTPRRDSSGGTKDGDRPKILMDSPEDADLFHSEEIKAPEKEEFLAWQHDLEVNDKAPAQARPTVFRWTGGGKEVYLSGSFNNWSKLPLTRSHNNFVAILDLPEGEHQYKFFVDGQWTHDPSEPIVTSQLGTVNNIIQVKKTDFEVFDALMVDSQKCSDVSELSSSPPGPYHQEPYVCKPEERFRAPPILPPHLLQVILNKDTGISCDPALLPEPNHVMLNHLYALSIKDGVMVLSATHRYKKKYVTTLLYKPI", "sequence (P54619 whole entry partner)": "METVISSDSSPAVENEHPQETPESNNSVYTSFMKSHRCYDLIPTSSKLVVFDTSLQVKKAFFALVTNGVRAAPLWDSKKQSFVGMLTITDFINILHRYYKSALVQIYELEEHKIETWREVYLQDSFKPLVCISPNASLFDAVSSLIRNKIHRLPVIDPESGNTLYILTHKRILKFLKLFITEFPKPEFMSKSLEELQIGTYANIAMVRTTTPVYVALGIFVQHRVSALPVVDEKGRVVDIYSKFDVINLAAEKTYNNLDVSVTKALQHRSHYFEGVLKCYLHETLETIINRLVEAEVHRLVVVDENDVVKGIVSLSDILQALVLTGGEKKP", "test": "[…] (in vitro AMPK activation assay)", "format": "biochemical", "details": "recombinant human AMPK complex 1 (α1β1γ1); basal activity subtracted; read-out: % Maximum AMP Activation of human AMPK Complex 1", "procedure": "(§1) Recombinant viruses were generated by cotransfection of AMPK/pBacPak9 clones with Baculogold baculovirus DNA (Pharmingen) in spodoptera frugiperda 21 cells according to the manufacturer's instructions. Each round of virus amplification was performed for 5 days in Grace's medium containing 10% serum. Virus that had been subjected to three rounds of amplification was used for all protein production procedures. To express the AMPK complex, sf21 cells were adapted to serum free medium (SF900 II, Invitrogen) by sequential dilution from serum containing stocks into SF900 II medium and maintained in shaker flasks at 90 rpm at 27° C. The recombinant AMPK enzyme complex was produced by triple infection, one recombinant virus for each of the subunits, in sf21 cells under serum free conditions. […] Cells were harvested by centrifugation at 10,000×g for 15 minutes after 72 hours of infection with viruses. The insect cell pellet from 2 liters of culture was resuspended in 50 ml lysis buffer (20 mM Tris-HCl, 50 mM NaCl, 50 mM NaF, 30 mM Na PPi, 0.25 M sucrose, 10 mM ZnCl2, 2 mM DTT, 0.4 mg/ml digitonin) and subjected to two cycles of freeze-thaw lysis in a dry-ice ethanol bath. Insoluble material was removed by centrifugation at 10,000×g and the supernatant was fractionated with use of polyethylene glycol (PEG).\n(§2) The total in vitro AMPK activation assay volume is 50 μl in a 96-well plate. […] The reaction was initiated with addition of the enzyme. After 30-minute incubation at 30° C., the reaction was stopped by addition of 80 μl 1% H3PO4. Aliquots (100 μl) were transferred to 96-well MultiScreen plates (MAPHNOB50; Millipore Corp., Bedford, Mass., USA). The plate was washed three times with 1% H3PO4 followed by detection in a Top-count. The counts per minute from the basal activity (the reaction without activator) was subtracted from each well and the data were expressed as % maximum AMP activation followed by EC50 calculation.", "units": {"Emax": "%"}, "values": [{"smiles": "Cc1ccc(Oc2nc3cc(-c4ccc(C(N)=O)cc4)c(Cl)cc3[nH]2)cc1C(=O)O", "note": "[Example 242, 5-[5-(4-Carbamoyl-phenyl)-6-chloro-1H-benzoimidazol-2-yloxy]-2-methyl-benzoic acid]", "Emax": "> 80"}, {"smiles": "Cc1ccc(Oc2nc3cc(C#CC4CCNC4)c(Cl)cc3[nH]2)cc1C(=O)O", "note": "(stereo not shown) [Example 138, 5-(6-Chloro-5-pyrrolidin-3-ylethynyl-1H-benzoimidazol-2-yloxy)-2-methyl-benzoic acid]", "Emax": "> 80"}, {"smiles": "Cc1c(Oc2nc3cc(-c4ccc5c(ccn5C)c4)c(Cl)cc3[nH]2)cccc1C(=O)O", "note": "[Example 218, 3-[6-Chloro-5-(1-methyl-1H-indol-5-yl)-1H-benzoimidazol-2-yloxy]-2-methyl-benzoic acid]", "Emax": "> 80"}, {"smiles": "Cc1ccc(Oc2nc3cc(C#Cc4ccc(Cl)cc4)c(Cl)cc3[nH]2)cc1C(=O)O", "note": "[Example 112, 5-[6-Chloro-5-(4-chloro-phenylethynyl)-1H-benzoimidazol-2-yloxy]-2-methyl-benzoic acid]", "Emax": "> 80"}, {"smiles": "Cc1ccc(Oc2nc3cc(-c4ccc5c(c4)c(C#N)cn5C)c(Cl)cc3[nH]2)cc1C(=O)O", "note": "[Example 349, 2-(3-carboxy-4-methylphenoxy)-6-chloro-5-(3-cyano-1-methyl-1H-indol-5-yl)-1H-3,1-benzimidazol-3-ium trifluoroacetate]", "Emax": "> 80"}, {"smiles": "COc1cc(C(=O)O)ccc1C#Cc1cc2nc(Oc3ccc(C)c(C(=O)O)c3)[nH]c2cc1Cl", "note": "[Example 127, 5-({5-[(4-carboxy-2-methoxyphenyl)ethynyl]-6-chloro-1H benzimidazol-2-yl}oxy)-2-methylbenzoic acid]", "Emax": "> 80"}, {"smiles": "O=C(NS(=O)(=O)c1ccccc1)c1cccc(Oc2nc3cc(-c4ccc(-c5ccccc5)cc4)c(Cl)cc3[nH]2)c1", "note": "[Example 222, N-[3-(5-Biphenyl-4-yl-6-chloro-1H-benzoimidazol-2-yloxy)-benzoyl]-benzenesulfonamide]", "Emax": "> 80"}, {"smiles": "COC(=O)c1cc(Oc2nc3cc(-c4ccc(-c5ccccc5C)cc4)c(Cl)cc3[nH]2)ccc1C", "note": "[Example 198, Methyl 5-{[6-chloro-5-(2′-methylbiphenyl-4-yl)-1H-benzimidazol-2-yl]oxy}-2-methylbenzoate]", "Emax": "> 80"}, {"smiles": "Cc1ccc(Oc2nc3cc(C#Cc4ccccc4Cl)c(Cl)cc3[nH]2)cc1C(=O)O", "note": "[Example 115, 5-[6-Chloro-5-(2-chloro-phenylethynyl)-1H-benzoimidazol-2-yloxy]-2-methyl-benzoic acid]", "Emax": "> 80"}, {"smiles": "NC(=O)Cc1cccc(Oc2nc3cc(C#Cc4ccccc4)c(Cl)cc3[nH]2)c1", "note": "[Example 23, 2-[3-(6-Chloro-5-phenylethynyl-1H-benzoimidazol-2-yloxy)-phenyl]-acetamide]", "Emax": "> 80"}, {"smiles": "Cc1cc(Oc2nc3cc(-c4ccc(-c5ccccc5)cc4)c(Cl)cc3[nH]2)cc(C(=O)O)c1", "note": "[Example 50, 3-(5-Biphenyl-4-yl-6-chloro-1H-benzoimidazol-2-yloxy)-5-methyl-benzoic acid]", "Emax": "> 80"}, {"smiles": "O=C(O)Cc1ccc(Oc2nc3cc(-c4ccc(-c5ccccc5)cc4)c(Cl)cc3[nH]2)cc1C(=O)O", "note": "[Example 8, 5-(5-Biphenyl-4-yl-6-chloro-1H-benzoimidazol-2-yloxy)-2-carboxymethyl-benzoic acid]", "Emax": "> 80"}, {"smiles": "O=C1NC(=O)C(c2ccc(Oc3nc4cc(-c5ccc(-c6ccccc6)cc5)c(Cl)cc4[nH]3)cc2)N1", "note": "(stereo not shown) [Example 29, 5-[4-(5-Biphenyl-4-yl-6-chloro-1H-benzoimidazol-2-yloxy)-phenyl]-imidazolidine-2,4-dione]", "Emax": "> 80"}, {"smiles": "Cc1ccc(Oc2nc3cc(-c4ccc5nnn(C)c5c4)c(Cl)cc3[nH]2)cc1C(=O)O", "note": "[Example 149, 5-[6-Chloro-5-(3-methyl-3H-benzotriazol-5-yl)-1H-benzoimidazol-2-yloxy]-2-methyl-benzoic acid]", "Emax": "> 80"}, {"smiles": "Cc1ccc(Oc2nc3cc(-c4cnc5c(ccn5C)c4)c(Cl)cc3[nH]2)cc1C(=O)O", "note": "[Example 144, 2-(3-carboxy-4-methylphenoxy)-6-chloro-5-(1-methyl-1H-pyrrolo[2,3-b]pyridin-5-yl)-1H-3,1-benzimidazol-3-ium chloride]", "Emax": "> 80"}, {"smiles": "Cc1ccc(Oc2nc3cc(-c4ccc(C(=O)O)c5c4ccn5C)c(Cl)cc3[nH]2)cc1C(=O)O", "note": "[Example 271, 4-[2-(3-Carboxy-4-meihyl-phenoxy)-6-chloro-1H-benzoimidazol-5-yl]-1-methyl-1H-indole-7-carboxylic acid]", "Emax": "> 80"}, {"smiles": "Cc1ccc(Oc2nc3cc(-c4ccc5c(c4)OC(F)(F)O5)c(Cl)cc3[nH]2)cc1C(=O)O", "note": "[Example 308, 5-[6-Chloro-5-(2,2-difluoro-benzo[1,3]dioxol-5-yl)-1H-benzoimidazol-2-yloxy]-2-methyl-benzoic acid]", "Emax": "> 80"}, {"smiles": "Cc1cc(Oc2nc3cc(-c4ccc(-c5ccccc5O)cc4)c(Cl)cc3[nH]2)cc(C(=O)O)c1", "note": "[Example 53, 3-[6-Chloro-5-(2′-hydroxy-biphenyl-4-yl)-1H-benzoimidazol-2-yloxy]-5-methyl-benzoic acid]", "Emax": "> 80"}, {"smiles": "COc1ccccc1-c1ccc(-c2cc3nc(Oc4ccc(C)c(C(=O)O)c4)[nH]c3cc2Cl)cc1", "note": "[Example 194, 5-{[6-chloro-5-(2′-methoxybiphenyl-4-yl)-1H-benzimidazol-2-yl]oxy}-2-methylbenzoic acid]", "Emax": "> 80"}, {"smiles": "Cc1ccc(Oc2nc3cc(-c4ccc5c(C)noc5c4)c(Cl)cc3[nH]2)cc1C(=O)O", "note": "[Example 265, 5-[6-chloro-5-(3-methyl-benzo[d]isoxazol-6-yl)-1H-benzoimidazol-2-yloxy]-2-methyl-benzoic acid]", "Emax": "> 80"}, {"smiles": "CCOC(=O)Cc1ccc(Oc2nc3cc(-c4ccc(-c5ccccc5)cc4)c(Cl)cc3[nH]2)cc1C(=O)OCC", "note": "[Example 9, 5-(5-Biphenyl-4-yl-6-chloro-1H-benzoimidazol-2-yloxy)-2-ethoxycarbonylmethyl-benzoic acid ethyl ester]", "Emax": "> 80"}, {"smiles": "Cc1ccc(Oc2nc3cc(C#Cc4ccc(CCO)cc4)c(Cl)cc3[nH]2)cc1C(=O)O", "note": "[Example 69, 5-{6-chloro-5-[4-(2-hydroxy-ethyl)-phenylethynyl]-1H-benzoimidazol-2-yloxy}-2-methyl-benzoic acid]", "Emax": "> 80"}, {"smiles": "Cc1ccc(Oc2nc3cc(C#Cc4ccc(C#N)cc4)c(Cl)cc3[nH]2)cc1C(=O)O", "note": "[Example 92, 5-[6-Chloro-5-(4-cyano-phenylethynyl)-1H-benzoimidazol-2-yloxy]-2-methyl-benzoic acid]", "Emax": "> 80"}, {"smiles": "COC(=O)c1cc(Oc2nc3cc(C#Cc4cncn4C)c(Cl)cc3[nH]2)ccc1C", "note": "[Example 136, 5-[6-Chloro-5-(3-methyl-3H-imidazol-4-ylethynyl)-1H-benzoimidazol-2-yloxy]-2-methyl-benzoic acid methyl ester]", "Emax": "> 80"}, {"smiles": "Cc1ccc(Oc2nc3cc(-c4ccc(N(C)C)c(F)c4)c(Cl)cc3[nH]2)cc1C(=O)O", "note": "[Example 296, 2-(3-carboxy-4-methylphenoxy)-6-chloro-5-[4-(dimethylamino)-3-fluorophenyl]-1H-3,1-benzimidazol-3-ium chloride]", "Emax": "> 80"}, {"smiles": "COC(=O)c1cc(Oc2nc3cc(C#Cc4ccccc4)c(Cl)cc3[nH]2)cc(C(=O)OC)c1", "note": "[Example 49, 5-(6-Chloro-5-phenylethynyl-1H-benzoimidazol-2-yloxy)-isophthalic acid dimethyl ester]", "Emax": "> 80"}, {"smiles": "Cc1ccc(Oc2nc3cc(-c4ccc5ccnc(O)c5c4)c(Cl)cc3[nH]2)cc1C(=O)O", "note": "[Example 238, 5-[6-Chloro-5-(1-hydroxy-isoquinolin-7-yl)-1H-benzoimidazol-2-yloxy]-2-methyl-benzoic acid]", "Emax": "> 80"}, {"smiles": "Cc1ccc(Oc2nc3cc(-c4ccc(C(C)O)cc4)c(Cl)cc3[nH]2)cc1C(=O)O", "note": "(stereo not shown) [Example 156, 5-{6-Chloro-5-[4-(1-hydroxy-ethyl)-phenyl]-1H-benzoimidazol-2-yloxy}-2-methyl-benzoic acid]", "Emax": "> 80"}, {"smiles": "Cc1ccc(Oc2nc3cc(-c4ccc5c(c4)CCNC5=O)c(Cl)cc3[nH]2)cc1C(=O)O", "note": "[Example 237, 5-[6-Chloro-5-(1-oxo-1,2,3,4-tetrahydro-isoquinolin-6-yl)-1H-benzoimidazol-2-yloxy]-2-methyl-benzoic acid]", "Emax": "> 80"}]}, {"biological_target": "recombinant human AMPK complex 1 (containing α1β1γ1) (Homo sapiens, UniProt Q13131+Q9Y478)", "test": "[…] (in vitro AMPK activation assay)", "format": "biochemical", "details": "recombinant human AMPK complex 1 (α1β1γ1); read-out: EC50", "procedure": "as §1, §2", "units": {"EC50": "nM"}, "values": [{"smiles": "Cc1ccc(Oc2nc3c(F)c(-c4ccc5c(ccn5C)c4)c(F)cc3[nH]2)cc1C(=O)O", "note": "[Example 228, 5-[4,6-Difluoro-5-(1-methyl-1H-indol-5-yl)-1H-benzoimidazol-2-yloxy]-2-methyl-benzoic acid]", "EC50": 2}, {"smiles": "Cc1ccc(Oc2nc3cc(-c4ccc(C(C)(C)O)cc4)c(Cl)cc3[nH]2)cc1C(=O)O", "note": "[Example 183, 5-({6-chloro-5-[4-(1-hydroxy-1-methylethyl)phenyl]-1H-benzimidazol-2-yl}oxy)-2-methylbenzoic acid]", "EC50": 16}]}]}
